Data on 8 compounds can be found in patent US8742121B2, “Process for the preparation of small molecule inhibitors of MDM2 and intermediates used therein” (The Regents of the University of Michigan, priority 2005, dated 2014).

Like-named read-outs stand apart in the source and are kept apart here.

One may read the Ki as a measure of affinity in units of concentration, obtained from inhibition or displacement. Usually IC50 stands for the concentration that gives 50% inhibition.

The target of experiment [1] is T1, recombinant human MDM2 protein (residues 1-118, His-tag) (Homo sapiens, UniProt Q00987).
T1 construct: The recombinant MDM2 human protein (residues 1-118) fused to His-tag at the N terminus; His-tag (N)
Kind of experiment: Fluorescence polarization (FP)-based competitive binding assay with PMDM6-F probe. The conditions noted are these: for Ki: competition with PMDM6-F, FIG. 4B/5.

Experiment [2] deals with RKO (wild-type p53) colon cancer cells. Kind of experiment: Cell cycle progression (BrdU/7-AAD flow cytometry), RKO. Format: cell-based. The conditions noted are these: 22 + 2 hours, FIG. 14. On the procedure:
(§1) Cell cycle progression was evaluated in RKO (wild-type p53) and HT-29 (mutant p53) colon cancer cell lines and CCD-18Co normal colon fibroblast cells by determining S-phase cells by incorporation of bromodeoxyuridine (BrdU) followed by staining with FITC-labeled anti-BrdU antibody and the total DNA-content by staining with 7-aminoactinomycin D (7-AAD) according to manufacturer's instructions (BD Biosciences, San Jose, Calif.). Briefly, cancer and normal cells, after overnight incubation, were treated with out test compounds for 22 hours, followed by an additional 2 hours of incubation with 10 μM of BrdU. Cells were harvested, fixed and stained with FITC-labeled anti-BrdU and 7-AAD. Cell cycle distribution was analyzed by flow cytometry. Cells were acquired and data analyzed by using CellQuest software (BD Biosciences).
A general note: A flow cytometer gives signals particle by particle.

Experiment [3] relates to CCD-18Co normal colon fibroblast cells. Kind of experiment: Cell cycle progression (BrdU/7-AAD flow cytometry), CCD-18Co. Format: cell-based. To be noted: 22 + 2 hours, FIG. 14. As for the experimental part: as §1
Experiment [4] relates to HT-29 (mutant p53) colon cancer cells. Kind of experiment: Cell cycle progression (BrdU/7-AAD flow cytometry), HT-29. The conditions noted are these: HT-29, 22 + 2 hours, FIG. 14. It counts as cell-based. As for the experimental part: as §1
Experiment [5] relates to LNCaP prostate cancer cells (p53 wild-type). The experiment is described as follows: WST-8 cell growth inhibition assay, LNCaP. Format: cell-based. To be noted: Homo sapiens, 96 h. A general note: Tetrazolium dyes change colour on reduction, which living cells bring about.
For experiment [6], the system named is PC-3 prostate cancer cells (p53 null). The experiment is described as follows: WST-8 cell growth inhibition assay, PC-3.
Experiment [7] concerns normal human prostate epithelial cells (PrEC) with wild-type p53. The experiment is described as follows: WST-8 cell growth inhibition assay, PrEC. Format: cell-based.
In experiment [8] the test system is HCT116 (wild-type p53) colon cancer cells. The experiment is described as follows: WST-8 cell growth inhibition assay, HCT116. It counts as cell-based.
The test system of experiment [9] is RKO (wild-type p53) colon cancer cells. Kind of experiment: WST-8 cell growth inhibition assay, RKO. It counts as cell-based.
Experiment [10] deals with p53, MDM2 and p21 expression in RKO (wild-type p53) cells. The experiment is described as follows: Western blot of p53 and its target gene products MDM2 and p21. It counts as cell-based. To be noted: 24 hours; RKO compared with HT-29 (mutant p53), FIG. 12. As for the experimental part: Cancer cells were treated with test compounds or 0.1% DMSO for 24 hours. Cells were harvested by trypsinization and washed with cold phosphate buffer saline, pH 7.5 (Invitrogen, Carlsbad, Calif.). Cells were lysed for 30 minutes in ice-cold lysis buffer (50 mM Tris (pH 7.5), 150 mM NaCl, 1 mM EDTA (pH 8.0), 25 mM sodium fluoride, 1% NP-40 and 0.1% SDS) containing 2 mM sodium orthovanadate, 1 mM phenylmethylsulfonyl fluoride and protease inhibitor cocktail (Roche Applied Science, Indianapolis, Ind.). Next, cell extracts were centrifuged at 12,000×g at 4° C. for 10 minutes to obtain clarified lysates. Protein was estimated by Bio-Rad dye. Cell lysates containing […] protein were resolved on a 4-20% tris-glycine gel (Invitrogen, Carlsbad, Calif.) and transferred onto poly(vinylidene difluoride) membranes. Immunodetection of proteins on the transfer membrane was performed by using anti-p53 (Ab-6, Oncogene Research Products, Boston, Mass.), anti-MDM2 (SMP14, Santa Cruz Biotechnology, Santa Cruz, Calif.) and anti-p21 (BD Biosciences, San Diego, Calif.) mouse monoclonal antibodies. Antibody to β-actin (Sigma, St Louis, Mo.) was used to assess the protein loading.
Background: In western blotting, separated proteins are transferred to a membrane and probed.

The target in the next experiment is T2, p53-MDM2 interaction (Homo sapiens, UniProt Q00987).
T2 construct: endogenous in cells; host or cells: HCT116 colon cancer cells (lysate)
The experiment is described as follows: Co-immunoprecipitation/Western blotting of p53-MDM2 interaction in HCT116 lysates. The conditions noted are these: increasing concentrations, 1 h at 4° C., FIG. 10. Format: biochemical. On the procedure: Co-immunoprecipitation (Co-IP)/Western blotting assays were performed to assess the effects of Ke-43 on p53-MDM2 interaction. After harvesting and washing once with cold PBS, HCT116 colon cancer cells were lysed by sonication in cold Co-IP buffer (50 mM Tris (pH 7.5), 150 mM NaCl, 1 mM EDTA (pH 8.0), 0.5% NP-40) containing 1 mM phenylmethylsulfonyl fluoride and protease inhibitor cocktail. Sonicated lysates were then centrifuged at 12,000×g at 4° C. for 15 minutes. Supernatant containing 2 mg protein was incubated in the absence or presence of Ke-43 for 1 h at 4° C., followed by addition agarose beads, conjugated either with anti-p53 antibody (FL-393, Santa Cruz) or with a non-specific antibody. After mixing for 2 h at 4° C., the agarose beads were washed 3 times with cold Co-IP buffer, boiled in sample buffer followed by SDS-PAGE and the presence of p53 and MDM2 was detected by Western blotting with mouse monoclonal antibodies against p53 and MDM-2 proteins.

The test system of experiment [11] is RKO (wild-type p53) colon cancer cells. The experiment is described as follows: Cell death (trypan blue) and apoptosis (sub-diploid DNA, PI staining). It counts as cell-based. The conditions noted are these: 4 days; RKO compared with HT-29 and CCD-18Co, FIG. 13. On the procedure: RKO (wild-type p53) and HT-29 (mutant p53) colon cancer cell lines and CCD-18Co normal colon fibroblast cells were treated with increasing doses of Ke-43 or Ke-61 for 4 days in 6-well Petri dishes. Trypan blue dye exclusion assays were performed to determine the ability of the inhibitors to induce cell death. After 4 days of treatment, floating and adherent cells were harvested and stained with 0.2% of trypan blue solution (Sigma, St Louis, Mo.). Each treatment was performed in triplicate and at least 100 cells were counted. Cells stained blue or morphologically unhealthy cells were scored as dead cells. To evaluate apoptosis, sub-diploid DNA content in cells treated with or without test inhibitors was analyzed by propidium iodide (PI) staining After washing once with cold PBS, cells were fixed in 70% ethanol for 1 day at −20° C. Ethanol-fixed cells were then washed twice with PBS and stained with a staining solution containing propidium iodide (PI) at 50 ng/ml and RNAse A at 100 ng/ml in PBS, for 20 minutes in dark at room temperature. Acquisition of cells and analysis of sub-diploid DNA content was performed by flow cytometry using CellQuest software.

Experiment [12] deals with PrEC normal prostate epithelial cells. Kind of experiment: Protection of normal cells from TAXOL (trypan blue viability). It counts as cell-based, human. The conditions noted are these: pretreatment 1 μM and 2.5 μM for 24 hours, then 1 μM TAXOL for 2 days, FIG. 15. As for the experimental part: PrEC normal prostate epithelial cells were seeded in 6 well pates and incubated with Ke-63 (1 μM and 2.5 μM) for 24 hours, then 1 μM TAXOL (paclitaxel) was added for 2 days. Trypan blue was used to determine cell viability.

Setting [13] is: 4 days, FIG. 6, read-out: IC50 inhibition of cell growth.

`CC(C)C[C@H]1N[C@@H](C(=O)N(C)C)[C@H](c2ccc(Cl)cc2)[C@@]12C(=O)Nc1cc(Cl)ccc12` [Example 1c, (2′R,3S,4′R,5′R) 6-Chloro-4′-(4-Chloro-Phenyl)-2′-Isobutyl-2-Oxo-1,2-Dihydro-Spiro[Indole-3,3′-Pyrrolidine]-5′-Carboxylic Acid Dimethylamide]: in experiment [1], the inhibitory constant (Ki) worked out at 7.7 µM. In addition, in [1] (relative to 1b), the “times less potent than 1b (Ki)” value is 26 times.

On to `COc1ccc2c(c1)NC(=O)[C@]21[C@@H](CC(C)(C)C)N[C@@H](C(=O)N(C)C)[C@@H]1c1cccc(Br)c1` [Ke-61, (2′R,3S,4′R,5′R) 4′-(3-Bromo-Phenyl)-2′-(2,2-Dimethyl-Propyl)-6-Methoxy-2-Oxo-1,2-Dihydro-Spiro[Indole-3,3′-Pyrrolidine]-5′-Carboxylic Acid Dimethylamide], for which the “S-phase / cell cycle progression” value in [2] and in experiment [3] was “did not have a significant effect” throughout. Further, the cell cycle progression result in experiment [4] is “did not have a significant effect”.

For `CC(C)CC[C@H]1N[C@@H](C(=O)N(C)C)[C@H](c2cccc(Cl)c2)[C@@]12C(=O)Nc1cc(Cl)ccc12` [Example 1f, (2′R,3S,4′R,5′R) 6-Chloro-4′-(3-Chloro-Phenyl)-2′-(3-Methyl-Butyl)-2-Oxo-1,2-Dihydro-Spiro[Indole-3,3′-Pyrrolidine]-5′-Carboxylic Acid Dimethylamide], in experiment [5] (setting [13]), the IC50 amounted to 1.9 µM. Further, the inhibitory constant (Ki) in experiment [1] amounted to 0.39 µM.

On to `CCC[C@H]1N[C@@H](C(=O)N(C)C)[C@H](c2cccc(Cl)c2)[C@@]12C(=O)Nc1cc(Cl)ccc12` [Example 1e, (2′R,3S,4′R,5′R) 6-Chloro-4′-(3-Chloro-Phenyl)-2-Oxo-2′-Propyl-1,2-Dihydro-Spiro[Indole-3,3′-Pyrrolidine]-5′-Carboxylic Acid Dimethylamide], for which the half-maximal inhibitory concentration (IC50) in experiment [5] (setting [13]) is 2.7 µM. Further, the Ki in [1] worked out at 0.65 µM.

`CN(C)C(=O)[C@@H]1N[C@H](CC(C)(C)C)[C@]2(C(=O)Nc3cc(Cl)ccc32)[C@H]1c1cccc(Cl)c1` [Example 1d, (2′R,3S,4′R,5′R) 6-Chloro-4′-(3-Chloro-Phenyl)-2-Oxo-2′-(2,2-Dimethylpropyl)-1,2-Dihydro-Spiro[Indole-3,3′-Pyrrolidine]-5′-Carboxylic Acid Dimethylamide]: the IC50 in experiment [5] (read-out: IC50 inhibition of cell growth) turned out to be 0.83 µM; in [6] (Homo sapiens, 96 h, read-out: IC50 inhibition of cell growth), 22.5 µM; in experiment [7] (Homo sapiens, 96 h, PrEC, 4 days, FIG. 8), 6 µM. The “times less active in PC-3 cells than in LNCaP cells” value in experiment [6] (PC-3 versus LNCaP) was 27 times. In experiment [7] (PrEC versus LNCaP), the “times less potent in PrEC cells than in LNCaP cells” value came to 13 times.

For `CC(C)(C)C[C@H]1N[C@@H](C(=O)NCCN2CCOCC2)[C@H](c2cccc(Br)c2)[C@@]12C(=O)Nc1cc(Cl)ccc12` [Ke-43, (2′R,3S,4′R,5′R) 6-Chloro-4′-(3-Bromo-Phenyl)-2′-(2,2-Dimethyl-Propyl)-2-Oxo-1,2-Dihydro-Spiro[Indole-3,3′-Pyrrolidine]-5′-Carboxylic Acid (2-Morpholin-4-yl-Ethyl)-Amide], the “S-phase / cell cycle progression” value in experiment [2] and in [3] was “dose-dependent depletion of S-phase” in each case. The growth inhibitory activity result in [8] (HCT116, 4 days, FIG. 11) is “potent growth inhibitory activity”; in [9] (RKO, 4 days, FIG. 11), “potent growth inhibitory activity”. The “specificity over cancer cells expressing mutant p53 (HT-29)” value in experiment [8] (HCT116 versus HT-29) is listed as “greater than 18 fold”; in experiment [9] (RKO versus HT-29) it was “greater than 13 fold”. In addition, the “Ki values (in words)” value in experiment [1] (Example 132, FIG. 9, more potent than the natural p53 peptide) is “low nM to sub-nM range”. The cell cycle progression entry in [4] is “no appreciable effect on cell cycle progression”. Moreover, the “accumulation of p53 and its target gene-products” value in experiment [10] was “induced accumulation of p53 and its target gene-products only in RKO cells expressing wild-type p53”. Besides, at p53-MDM2 interaction, the “immunoprecipitation of MDM2 by anti-p53 antibody” value is “disrupts the interaction between p53 and MDM2”. Further, in experiment [11], the apoptosis entry is listed as “Only cancer cells expressing wild-type p53 underwent apoptosis”.

On to `CC(C)C[C@H]1N[C@@H](C(=O)N(C)C)[C@H](c2cccc(Cl)c2)[C@@]12C(=O)Nc1cc(Cl)ccc12` [Example 1b, (2′R,3S,4′R,5′R) 6-Chloro-4′-(3-Chloro-Phenyl)-2′-Isobutyl-2-Oxo-1,2-Dihydro-Spiro[Indole-3,3′-Pyrrolidine]-5′-Carboxylic Acid Dimethylamide], for which, in experiment [5] (setting [13]), the IC50 was determined as 2.1 µM. In addition, the inhibition constant (Ki) in [1] turned out to be 0.3 µM. In experiment [1] (relative to 1a), the “times more potent than 1a (Ki)” value turned out to be 28 times.

Turning to `CC(C)(C)C[C@H]1N[C@@H](C(=O)NCCN2CCOCC2)[C@H](c2cccc(Cl)c2F)[C@@]12C(=O)Nc1cc(Cl)ccc12` [Ke-63, (2′R,3S,4S,5′R) 6-Chloro-4′-(3-Chloro-2-Fluoro-Phenyl)-2′-(2,2-Dimethyl-Propyl)-2-Oxo-1,2-Dihydro-Spiro[Indole-3,3′-Pyrrolidine]-5′-Carboxylic Acid (2-Morpholin-4-yl-Ethyl)-Amide], the “protection of cells from TAXOL (cell viability)” value in experiment [12] is “cells were protected from TAXOL”.
